What was measured:
CT26 tumors = test: Anticancer activity in vivo, CT26-bearing Balb/c mice; conditions: i.v. on days 3 and 10, dose equimolar to 20 mg/kg picoplatin
Method: Ten-week-old Balb/c mice were purchased from Envigo Laboratories (San Pietro al Natisone, Italy). […] Animals were controlled for distress development every day, and tumor size was assessed regularly by caliper measurement. Tumor volume was calculated using the formula: (length × width^2)/2.
CT26 cells (5 × 10^5 in serum-free medium) were injected subcutaneously into the right flank of male Balb/c mice. Therapy was started when tumor nodules were palpable (day 3). […] Mice were sacrificed by cervical dislocation in the case of a tumor length >20 mm, tumor ulceration, or other signs for distress.

[1] = Serum pharmacokinetics and tumor/organ distribution (Pt by ICP-MS) in CT26-bearing Balb/c mice; assay type: in vivo; conditions: single i.v. dose equimolar to 20 mg/kg picoplatin
Method: CT-26 cells (5 × 10^5 cells in 50 μL of serum-free medium) were subcutaneously injected into the right flank of male Balb/c mice. […]. […] and the three maleimide-containing platinum(IV) complexes were dissolved in 30% PEG400-containing 0.9% NaCl and PBS (Cytiva, USA), respectively. […]. After a 10 min clotting period of the blood at RT, the serum was separated by centrifugation (900 g, 10 min, repeated twice). Tumor and organ accumulation of the drug was assessed at 5 and 24 h postadministration (2 animals per time point). Mice were euthanized via cervical dislocation, and their tumors and organs were excised. All collected samples were stored at −20 °C until further processing for Pt concentration analysis by ICP-MS. […] Approximately 15–30 mg of tissue (gravimetrically measured) was digested with 2 mL of 20% nitric acid and 100 μL of H2O2 in an open-vessel graphite digestion system (Labter, ODLAB; AHF Analysentechnik AG, Germany), using PFA vials and lids. […] Quantification of total Pt content was performed on a quadrupole-based ICP-MS instrument (Agilent 7800, Agilent Technologies, Tokyo, Japan), equipped with an Agilent SPS 4 autosampler and a MicroMist nebulizer. […] Rh was used as the internal standard for Pt quantification. […]

CC(=O)[O][Pt]([Cl])([Cl])[O]C(=O)NCCN1C(=O)C=CC1=O.Cc1ccccn1.N [Pico-Mal]
impact on tumor growth (CT26 tumors): inactive
platinum levels in the kidneys [1]: higher

Source: PMC11815855, “Exploring the Structure–Activity Relationships of Albumin-Targeted Picoplatin-Based Platinum(IV) Prodrugs” (Inorganic Chemistry, 2025)
